Test results as given in EP4707280A1, “1,4-CINEOLE DERIVATIVE AND INTERMEDIATE THEREOF, HERBICIDE CONTAINING SAID DERIVATIVE AS ACTIVE INGREDIENT, METHOD FOR USING HERBICIDE, AND METHOD FOR PREPARING AGROCHEMICAL COMPOSITION” (HOKKO CHEMICAL INDUSTRY CO., LTD., priority 2023, dated 2024).

Tests used:
Assay type in all cases: in vivo
[1] = tested on: Echinochloa crus-galli var. formosensis; experiment: Test Example 1: herbicidal effect test by soil application in paddy rice; details: 120 g active ingredient per 10 ares, applied immediately after sowing, flooded pots, 14 days after application; for pest or weed control at 1200 g/ha: Echinochloa crus-galli, soil, 336 h, read-out: weed inhibition rate
Procedure, shortened: (§1)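 Paddy soil in Wagner pots (1/10,000 acre), fertilized and puddled; 30 seeds per species sown at 0–1 cm, flooded to ~3 cm, greenhouse. Water-diluted emulsifiable concentrate dropped onto flooded pots right after sowing at 120 g active ingredient per 10 ares.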

Scirpus juncoides [2] = experiment: as above; details: Schoenoplectiella juncoides, soil, 336 h; 120 g active ingredient per 10 ares; applied immediately after sowing, flooded pots; 14 days after application; read-out: weed inhibition rate
Procedure, shortened: as §1

[3] = tested on: Echinochloa crus-galli var. formosensis; experiment: Test Example 2: herbicidal effect test by application during growth period of paddy rice; details: 120 g per 10 ares, applied seven days after sowing, flooded pots, 14 days after application; for inhibition at 1200 g/ha: Echinochloa crus-galli, read-out: weed inhibition rate
Procedure, shortened: (§2)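 Steps: puddle fertilized paddy soil; sow 30 seeds of each weed at 0–1 cm; flood to roughly 3 cm and keep in a glasshouse; at day 7 drop in diluted emulsifiable concentrate (120 g a.i. per 10 ares); score inhibition (%) 14 days later, two replicates.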

Scirpus juncoides [4] = experiment: as above; details: Schoenoplectiella juncoides; 120 g per 10 ares; applied seven days after sowing, flooded pots; 14 days after application; read-out: weed inhibition rate
Procedure, shortened: as §2

Echinochloa crus-galli [5] = experiment: Test Example 3: herbicidal effect test by soil application in upland field; details: Echinochloa crus-galli, 120 g per 10 ares, sprayed one day after sowing, 14 days after application, read-out: weed inhibition rate
Procedure, shortened: (§3)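 Pre-emergence test: seeds mixed into top 1 cm of alluvial loam upland soil in pots; emulsifiable concentrate diluted in water sprayed on soil one day after sowing at 100 L/10 a, 120 g a.i./10 a. Weed inhibition rate (%) scored at 14 days, in duplicate.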

Echinochloa crus-galli [6] = experiment: Test Example 4: herbicidal effect test by stem and leaf treatment in upland field; details: Echinochloa crus-galli; 120 g per 10 ares; sprayed seven days after sowing, upland soil; 14 days after application; read-out: weed inhibition rate
[7] = tested on: Echinochloa crus-galli var. formosensis; experiment: Test Example 5: herbicidal effect test by soil application in paddy rice (low dose); details: 7.5 g per 10 ares, applied immediately after sowing, flooded pots, 14 days after application; for inhibition at 75 g/ha: Echinochloa crus-galli, soil, 336 h, read-out: weed inhibition rate
Method: (§4) The present test was conducted in duplicate for each chemical concentration group, and the weed inhibition rate (%) was determined 14 days after chemical application using the following formula (Math. 1). [formula]
Wagner pots with an area of […] were filled with paddy soil, followed by addition of water and incorporation of chemical fertilizer (N:P:K = 16:16:16), after which puddling was performed. After that, seeds of Echinochloa crus-galli var. formosensis, broad-leaved weeds (Monochoria vaginalis), and Scirpus juncoides were sown at a depth of 0 cm to 1 cm, 30 seeds each. Immediately after sowing, the pots were flooded and a water depth of approximately 3 cm was maintained. Subsequent management was conducted in a glass greenhouse. Immediately thereafter, an emulsifiable concentrate prepared according to Formulation Example 5 using the compound shown below was diluted with water, and a specified amount of the diluted solution was applied by dropper. The amount of the active ingredient to be applied was equivalent to 7.5 g per 10 ares. […]

[8] = tested on: Echinochloa crus-galli var. formosensis; experiment: Test Example 6: herbicidal effect test by application during growth period of paddy rice (low dose); details: 7.5 g per 10 ares, applied seven days after sowing, flooded pots, 14 days after application; for inhibition at 75 g/ha: Echinochloa crus-galli, read-out: weed inhibition rate
Method: as §4
Wagner pots with an area of […] were filled with paddy soil, followed by addition of water and incorporation of chemical fertilizer (N:P:K = 16:16:16), after which puddling was performed. After that, seeds of Echinochloa crus-galli var. formosensis, broad-leaved weeds (Monochoria vaginalis), and Scirpus juncoides were sown at a depth of 0 cm to 1 cm, 30 seeds each. Immediately after sowing, the pots were flooded and a water depth of approximately 3 cm was maintained. Subsequent management was conducted in a glass greenhouse. Seven days after sowing, an emulsifiable concentrate prepared according to Formulation Example 5 using the compound shown below was diluted with water, and a specified amount of the diluted solution was applied by dropper. The amount of the active ingredient to be applied was equivalent to 7.5 g per 10 ares. The test was conducted in duplicate for each chemical concentration group, and the herbicidal effect was evaluated 14 days after chemical application using the same criteria as in Test Example 1.

Digitaria ciliaris [9] = experiment: Test Example 3: herbicidal effect test by soil application in upland field; details: Digitaria ciliaris, 120 g per 10 ares, sprayed one day after sowing, 14 days after application, read-out: weed inhibition rate
Procedure, shortened: as §3

Digitaria ciliaris [10] = experiment: Test Example 4: herbicidal effect test by stem and leaf treatment in upland field; details: Digitaria ciliaris; 120 g per 10 ares; sprayed seven days after sowing, upland soil; 14 days after application; read-out: weed inhibition rate

CC(C)[C@]12CC(OCc3ccccc3OC(F)(F)F)[C@](C)(C[C@@H]1Cl)O2 (mixture of isomers) [1-627, (1R,2S,4S,SR)-2-chloro-1-isopropyl-4-methyl-5-[[2-(trifluoromethoxy)phenyl]methoxy]-7-oxabicyclo[2.2.1]heptane]
≥ 80%: pest or weed control at 1200 g/ha [1] | pest or weed control at 1200 g/ha (Scirpus juncoides [2]) | inhibition at 1200 g/ha [3] | inhibition at 1200 g/ha (Scirpus juncoides [4])

Cc1ccccc1CO[C@@H]1C[C@]2(C(C)C)O[C@@]1(C)CC2c1ccccc1 (stereo partly drawn) [1-313, (1S,2R,4R)-4-isopropyl-1-methyl-2-((2-methylbenzyl)oxy)-5-phenyl-7-oxabicyclo[2.2.1]heptane]
≥ 80%: pest or weed control at 1200 g/ha [1] | inhibition at 1200 g/ha [3] | inhibition at 1200 g/ha (Echinochloa crus-galli [5]) | inhibition at 1200 g/ha (Echinochloa crus-galli [6]) | inhibition at 75 g/ha [7] | inhibition at 75 g/ha [8]

CC(C)[C@]12C[C@@H](OCc3ccccc3C(F)(F)F)[C@](C)(C[C@@H]1Cl)O2 [1-640, (1R,2S,4S,5R)-2-chloro-1-isopropyl-4-methyl-5-[[2-(trifluoromethyl)phenyl]methoxy]-7-oxabicyclo[2.2.1]heptane]
≥ 80%: pest or weed control at 1200 g/ha [1] | pest or weed control at 1200 g/ha (Scirpus juncoides [2]) | inhibition at 1200 g/ha [3] | inhibition at 1200 g/ha (Scirpus juncoides [4])

Cc1noc(C)c1CO[C@@H]1C[C@]2(C(C)C)O[C@@]1(C)C[C@@H]2Cl [1-663, 4-[[(1S,2R,4R,5S)-5-chloro-4-isopropyl-1-methyl-7-oxabicyclo[2.2.1]heptan-2-yl]oxymethyl]-3,5-dimethyl-isoxazole]
≥ 80%: pest or weed control at 1200 g/ha [1] | pest or weed control at 1200 g/ha (Scirpus juncoides [2]) | inhibition at 1200 g/ha [3] | inhibition at 1200 g/ha (Scirpus juncoides [4])

CCCCCCO[C@@H]1C[C@]2(C(C)C)O[C@@]1(C)C[C@@H]2Br [1-669, (1S,2R,4R,5S)-5-bromo-2-hexoxy-1-methyl-4-isopropyl-7-oxabicyclo[2.2.1]heptane]
≥ 80%: pest or weed control at 1200 g/ha [1] | inhibition at 1200 g/ha [3] | inhibition at 1200 g/ha (Scirpus juncoides [4]) | inhibition at 1200 g/ha (Digitaria ciliaris [9]) | inhibition at 1200 g/ha (Echinochloa crus-galli [5]) | inhibition at 1200 g/ha (Digitaria ciliaris [10]) | inhibition at 1200 g/ha (Echinochloa crus-galli [6])

CC(C)[C@]12C[C@@H](OCC3CCCCC3)[C@](C)(C[C@@H]1Br)O2 [1-676, (1S,2R,4R,5S)-5-bromo-2-(cyclohexylmethoxy)-1-methyl-4-isopropyl-7-oxabicyclo[2.2.1]heptane]
≥ 80%: pest or weed control at 1200 g/ha [1] | pest or weed control at 1200 g/ha (Scirpus juncoides [2]) | inhibition at 1200 g/ha [3] | inhibition at 1200 g/ha (Digitaria ciliaris [9]) | inhibition at 1200 g/ha (Echinochloa crus-galli [5]) | inhibition at 1200 g/ha (Digitaria ciliaris [10]) | inhibition at 1200 g/ha (Echinochloa crus-galli [6]) | inhibition at 75 g/ha [7] | inhibition at 75 g/ha [8]

CC(C)[C@]12C[C@@H](OCc3cccc4ccccc34)[C@](C)(C[C@@H]1Br)O2 [1-715, (1S,2R,4R,5S)-5-bromo-1-methyl-2-(naphthalen-1-ylmethoxy)-4-isopropyl-7-oxabicyclo[2.2.1]heptane]
≥ 80%: pest or weed control at 1200 g/ha [1] | inhibition at 1200 g/ha [3] | inhibition at 75 g/ha [7] | inhibition at 75 g/ha [8]

Cc1noc(C)c1CO[C@@H]1C[C@]2(C(C)C)O[C@@]1(C)C[C@@H]2Br [1-723, 4-[[(1S,2R,4R,5S)-5-bromo-1-methyl-4-isopropyl-7-oxabicyclo[2.2.1]heptan-2-yl]oxymethyl]-3,5-dimethyl-1,2-oxazole]
≥ 80%: pest or weed control at 1200 g/ha [1] | inhibition at 1200 g/ha [3] | inhibition at 75 g/ha [7] | inhibition at 75 g/ha [8]

CC(C)[C@]12C[C@@H](OCc3cccnc3)[C@](C)(C[C@@H]1I)O2 [1-786, 3-[[(1S,2R,4R,5S)-5-iodo-4-isopropyl-1-methyl-7-oxabicyclo[2.2.1]heptan-2-yl]oxymethyl]pyridine]
≥ 80%: pest or weed control at 1200 g/ha (Scirpus juncoides [2]) | inhibition at 1200 g/ha (Scirpus juncoides [4])

CC(C)[C@]12C[C@@H](OCc3ccccc3F)[C@](C)(CC1c1ccsc1)O2 (stereo partly drawn) [1-928, (1S,2R,4R)-2-((2-fluorobenzyl)oxy)-4-isopropyl-1-methyl-5-(thiophen-3-yl)-7-oxabicyclo[2.2.1]heptane]
≥ 80%: pest or weed control at 1200 g/ha [1] | inhibition at 1200 g/ha [3] | inhibition at 1200 g/ha (Digitaria ciliaris [10]) | inhibition at 1200 g/ha (Echinochloa crus-galli [6]) | inhibition at 75 g/ha [7] | inhibition at 75 g/ha [8]

CC(=O)O[C@@H]1C[C@]2(C)O[C@@]1(C(C)C)C[C@H]2OCc1ccccc1F [1-932, [(1R,2R,4S,5R)-5-[(2-fluorophenyl)methoxy]-4-methyl-1-isopropyl-7-oxabicyclo[2.2.1]heptan-2-yl]acetate]
≥ 80%: weed inhibition rate [1] | weed inhibition rate [3] | weed inhibition rate [7] | weed inhibition rate [8]

COC(=O)c1ccccc1CO[C@H]1C[C@@]2(C(C)C)O[C@]1(C)C[C@H]2I [1-1115, methyl 2-[[(1R,2S,4S,5R)-5-iodo-1-methyl-4-isopropyl-7-oxabicyclo[2.2.1]heptan-2-yl]oxymethyl]benzoate]
≥ 80%: pest or weed control at 1200 g/ha (Scirpus juncoides [2]) | inhibition at 1200 g/ha (Scirpus juncoides [4])

COC(=O)c1ccccc1COC1CC2(C(C)C)OC1(C)CC2Cl (stereo not shown) [1-1310, methyl 2-[(5-chloro-4-isopropyl-1-methyl-7-oxabicyclo[2.2.1]heptan-2-yl)oxymethyl]benzoate]
≥ 80%: pest or weed control at 1200 g/ha (Scirpus juncoides [2]) | inhibition at 1200 g/ha (Scirpus juncoides [4])

CC(C)C12CC(OCc3cccnc3)C(C)(CC1Cl)O2 (stereo not shown) [1-1321, 3-[(5-chloro-4-isopropyl-1-methyl-7-oxabicyclo[2.2.1]heptan-2-yl)oxymethyl]pyridine]
≥ 80%: pest or weed control at 1200 g/ha (Scirpus juncoides [2]) | inhibition at 1200 g/ha (Scirpus juncoides [4])

CC(C)C12CC(OCc3ccncc3)C(C)(CC1Cl)O2 (stereo not shown) [1-1322, 4-[(5-chloro-4-isopropyl-1-methyl-7-oxabicyclo[2.2.1]heptan-2-yl)oxymethyl]pyridine]
≥ 80%: pest or weed control at 1200 g/ha (Scirpus juncoides [2]) | inhibition at 1200 g/ha (Scirpus juncoides [4])

COC(=O)c1ccccc1COC1CC2(C(C)C)OC1(C)CC2I (stereo not shown) [1-1442, methyl 2-[(5-iodo-4-isopropyl-1-methyl-7-oxabicyclo[2.2.1]heptan-2-yl)oxymethyl]benzoate]
≥ 80%: pest or weed control at 1200 g/ha (Scirpus juncoides [2]) | inhibition at 1200 g/ha (Scirpus juncoides [4])
